Reference: patent US12116358B2, “Substituted indoles and methods of use thereof” (EPIZYME, INC., priority 2018, dated 2024)
Where two headings read alike, the source gives them in different places.

Experiments:
SETD2(1434-1711) = biological target: T1, SETD2(1434-1711) (Homo sapiens, UniProt Q9BYW2); experiment: SETD2 (1434-1711) assay; format: biochemical; details: read-out: SETD2 (1434-1711)
T1 construct: SETD2 (1434-1711) Assay; catalogue N/A
T1 sequence (Q9BYW2 1434-1711): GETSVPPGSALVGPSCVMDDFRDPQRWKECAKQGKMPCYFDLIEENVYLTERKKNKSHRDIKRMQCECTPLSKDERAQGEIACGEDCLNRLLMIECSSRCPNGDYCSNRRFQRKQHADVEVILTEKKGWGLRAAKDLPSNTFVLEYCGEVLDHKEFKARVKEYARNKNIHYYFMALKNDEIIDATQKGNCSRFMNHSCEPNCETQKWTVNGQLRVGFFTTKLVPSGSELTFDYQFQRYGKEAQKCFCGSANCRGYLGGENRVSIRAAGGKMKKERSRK

H3K36me3 in A549 cells = experiment: In-Cell Western (ICW) assay of SETD2 inhibitors (A549 assay); format: cell-based, human
Method in brief: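 A549 cells seeded at 4,000/well onto compound and incubated 3 days at 37° C. Methanol-fixed cells stained overnight at 4° C with anti-H3K36me3 (1:1000), then IRDye 800CW secondary with DRAQ5 DNA counterstain. Plates read by Licor imaging at 700 and 800 channels.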

[1] = A549 cells, read-out: SETD2 A549
[2] = Homo sapiens, A549 cells, read-out: SETD2 A549

SMILES | IC50 (SETD2(1434-1711)) | IC50 (H3K36me3 in A549 cells; [1]) | IC50 (H3K36me3 in A549 cells; [2]) | IC50 (H3K36me3 in A549 cells; Homo sapiens, A549, read-out: SETD2 A549)
CNC(=NC#N)N1CCN(C2CCCC(NC(=O)c3cc4c(F)ccc(C)c4[nH]3)C2)CC1 (stereo not shown) [compound 1152] | 1100 nM | > 2000 nM | – | –
Cc1ccc(F)c2cc(C(=O)NC3CCCC(N4CCC(=O)N(C)CC4)C3)[nH]c12 (stereo not shown) [compound 944] | 30 nM | 100 nM | – | –
Cc1ccc(F)c2cc(C(=O)Nc3cccc(C4CCN5C(=O)CCC5C4)c3)[nH]c12 (stereo not shown) [compound 37] | 20 nM | 90 nM | – | –
Cc1ccc(F)c2cc(C(=O)NC3CCCC(N4CCn5cnnc5C4)C3)[nH]c12 (stereo not shown) [compound 860] | 100 nM | 1600 nM | – | –
CC(=O)N1CCN([C@@H]2CCC[C@@H](NC(=O)c3cc4c(F)ccc(C)c4[nH]3)C2)CC12CC2 [compound 1100] | 900 nM | – | > 2000 nM | –
Cc1ccc(F)c2cc(C(=O)N[C@@H]3CCC[C@@H](c4cccnc4)C3)[nH]c12 [compound 902] | 4200 nM | – | > 2000 nM | –
CC(=O)N1C(C)CN(C2CCCC(NC(=O)c3cc4c(F)ccc(C)c4[nH]3)C2)CC1C (stereo not shown) [compound 1123] | 500 nM | 1400 nM | – | –
Cc1ccc(F)c2cc(C(=O)Nc3cccc(N4CC5CC(C4)O5)c3)[nH]c12 [compound 218] | 70 nM | 500 nM | – | –
CCc1cccc2cc(C(=O)NC(CCC(=O)N3CCOCC3)c3ncccc3C)[nH]c12 (stereo not shown) [compound 464] | 8400 nM | 6600 nM | – | –
Cc1ccc(F)c2cc(C(=O)Nc3cc(F)cc(N4CCC(N(C)C)C4=O)c3)[nH]c12 (stereo not shown) [compound 3] | 4 nM | 30 nM | – | –
CC(=O)N1CCC(N2CCCC(NC(=O)c3cc4c(F)ccc(C)c4[nH]3)C2)CC1 (stereo not shown) [compound 366] | 3000 nM | – | > 2000 nM | –
Cc1ccc(F)c2cc(C(=O)Nc3cccc(N4CCNC(=O)C4)c3)[nH]c12 [compound 147] | 30 nM | – | 300 nM | –
Cc1ccc(F)c2cc(C(=O)NCCc3ccccc3N3CCN(C)CC3)[nH]c12 [compound 540] | 1700 nM | – | > 25000 nM | –
Cc1ccc(F)c2cc(C(=O)Nc3cccc(N4C[C@H](O)[C@@H](N(C)C)C4)c3)[nH]c12 [compound 61] | 10 nM | 100 nM | – | –
Cc1ccc(F)c2cc(C(=O)Nc3cccc(N4CCC(N(C)CCF)C4)c3)[nH]c12 (stereo not shown) [compound 130] | 40 nM | – | 300 nM | –
Cc1ccc(F)c2cc(C(=O)Nc3cccc(C4CCCCN4)c3)[nH]c12 (stereo not shown) [compound 438] | 300 nM | – | 4900 nM | –
Cc1ccc(F)c2cc(C(=O)Nc3cc(F)cc(N4CCC(N5CCCC5=O)C4)c3)[nH]c12 (stereo not shown) [compound 18] | 8 nM | 60 nM | – | –
Cc1ccc(F)c2cc(C(=O)Nc3cccc(N4CCC(C)(N(C)C)CC4)c3)[nH]c12 [compound 222] | 20 nM | 500 nM | – | –
Cc1ccc(F)c2cc(C(=O)N[C@@H]3CCC[C@@H](N4CCN(C(=O)CN(C)C)CC4)C3)[nH]c12 [compound 855] | 4700 nM | > 2000 nM | – | –
COCC1(COC)CCN(c2cccc(NC(=O)c3cc4c(F)ccc(C)c4[nH]3)c2)CC1 [compound 173] | 70 nM | – | 300 nM | –

SMILES | IC50 (SETD2(1434-1711)) | IC50 (H3K36me3 in A549 cells; [1]) | IC50 (H3K36me3 in A549 cells; [2]) | IC50 (H3K36me3 in A549 cells; Homo sapiens, A549, read-out: SETD2 A549)
Cc1ccc(F)c2cc(C(=O)Nc3cccc(N4CC5CC4CO5)c3)[nH]c12 (stereo not shown) [compound 284] | 200 nM | – | 1000 nM | –
Cc1ccc(C(=O)N2CCNCC2)cc1C(NC(=O)c1cc2cccc(C)c2[nH]1)C1CC1 (stereo not shown) [compound 583] | 32400 nM | – | > 25000 nM | –
COCc1nnc(-c2cccc(NC(=O)c3cc4c(F)ccc(C)c4[nH]3)c2)s1 [compound 81] | 30 nM | 200 nM | – | –
Cc1cccc2cc(C(=O)NC3CC(=O)NCC(c4ccccc4)C3)[nH]c12 (stereo not shown) [compound 617] | > 200000 nM | > 25000 nM | – | –
Cc1ccc(F)c2cc(C(=O)NC3CCCC(N4CCN5C(=O)CN(C)C(=O)C5C4)C3)[nH]c12 (stereo not shown) [compound 1104] | 40 nM | 200 nM | – | –
Cc1ccc(F)c2cc(C(=O)Nc3cccc(N4CCC(N(C)CCO)C4)c3)[nH]c12 (stereo not shown) [compound 148] | 20 nM | – | 300 nM | –
Cc1ccc(F)c2cc(C(=O)Nc3cccc(N4CCN(C)CC4CO)c3)[nH]c12 (stereo not shown) [compound 277] | 200 nM | – | 900 nM | –
Cc1cccc2cc(C(=O)Nc3ccc4ncc(CN(C)C)n4c3)[nH]c12 [compound 427] | 400 nM | 4000 nM | – | –
Cc1cccc2cc(C(=O)NC(c3cccc4c3NC(=O)C4)C3CC3)[nH]c12 (stereo not shown) [compound 564] | 10900 nM | – | > 25000 nM | –
Cc1ccc(F)c2cc(C(=O)Nc3ccnc(N4CCN(C)CC4)c3)[nH]c12 [Cpd. No. 340, 4-fluoro-7-methyl-N-(2-(4-methylpiperazin-1-yl)pyridin-4-yl)-1H-indole-2-carboxamide] | 200 nM | – | – | 1700 nM
Cc1ccc(F)c2cc(C(=O)Nc3cccc(-c4nccn4C)c3)[nH]c12 [compound 171] | 100 nM | – | 300 nM | –
Cc1cccc2cc(C(=O)Nc3cccc(CN4CCN(C)CC4)c3)[nH]c12 [compound 488] | 2500 nM | 11800 nM | – | –
Cc1ccc(F)c2cc(C(=O)NC3CCCC(N4CCN(C5CC5)C(=O)C4)C3)[nH]c12 (stereo not shown) [compound 977] | 20 nM | 200 nM | – | –
Cc1ccc(F)c2cc(C(=O)NC3CCCC(N4CCN(C(=O)C(C)C)C(C(F)(F)F)C4)C3)[nH]c12 (stereo not shown) [compound 1172] | 3100 nM | > 2000 nM | – | –
Cc1ccc(F)c2cc(C(=O)Nc3cccc(-c4noc(=O)[nH]4)c3)[nH]c12 [compound 545] | 3100 nM | > 25000 nM | – | –
Cc1ccc(F)c2cc(C(=O)NC3CCCC(N4CCN5C(=O)OCC5C4)C3)[nH]c12 (stereo not shown) [compound 865] | 30 nM | 100 nM | – | –
Cc1ccc[n+]([O-])c1C(NC(=O)c1cc2cccc(C)c2[nH]1)C1CC1 (stereo not shown) [compound 576] | 18600 nM | – | > 25000 nM | –
Cc1ccc(F)c2cc(C(=O)NC3CCCC(N4CCN(C(=O)CO)C(C(F)(F)F)C4)C3)[nH]c12 (stereo not shown) [compound 1117] | 30 nM | 10 nM | – | –
Cc1ccc(F)c2cc(C(=O)Nc3cccc(N4CCN(C(C)C)CC4)c3)[nH]c12 [compound 243] | 50 nM | 600 nM | – | –
CC(=O)N1CCN(c2cccc(NC(=O)c3cc4c(F)ccc(C)c4[nH]3)c2)CC1C(F)(F)F (stereo not shown) [compound 77] | 60 nM | 200 nM | – | –

SMILES | IC50 (SETD2(1434-1711)) | IC50 (H3K36me3 in A549 cells; [1]) | IC50 (H3K36me3 in A549 cells; [2]) | IC50 (H3K36me3 in A549 cells; Homo sapiens, A549, read-out: SETD2 A549)
Cc1ccc(F)c2cc(C(=O)NC3CCCN(CCC(=O)N(C)C)C3)[nH]c12 (stereo not shown) [compound 378] | > 10000 nM | > 2000 nM | – | –
Cc1ccc(F)c2cc(C(=O)N[C@@H]3CCCC(N4CCC5(CCC(=O)N5)CC4)C3)[nH]c12 (stereo partly shown) [compound 894] | 30 nM | – | 1400 nM | –
Cc1cc(C(=O)N2CCNCC2)ccc1C(NC(=O)c1cc2cccc(C)c2[nH]1)C1CC1 (stereo not shown) [compound 577] | 21800 nM | – | > 25000 nM | –
Cc1cc(CCN2CCN(C)CC2)cnc1C(CCc1ccccc1)NC(=O)c1cc2c(F)ccc(C)c2[nH]1 (stereo not shown) [compound 414] | 80 nM | 3200 nM | – | –
CN[C@H]1CCN([C@@H]2CCC[C@@H](NC(=O)c3cc4c(F)ccc(C)c4[nH]3)C2)C1 [compound 1088] | 2200 nM | – | > 2000 nM | –
Cc1ccc(F)c2cc(C(=O)N[C@@H]3CCC[C@@H](N4CCn5cncc5C4)C3)[nH]c12 [compound 992] | 1900 nM | – | > 2000 nM | –
CCN(C(=O)CO)C1CCN(C2CCCC(NC(=O)c3cc4c(F)ccc(C)c4[nH]3)C2)C1 (stereo not shown) [compound 1129] | 10 nM | 100 nM | – | –
Cc1ccc(F)c2cc(C(=O)N[C@@H]3CCC[C@H](N4CCN(C)CC4=O)C3)[nH]c12 [compound 916] | 1000 nM | – | 1300 nM | –
Cc1ccc(F)c2cc(C(=O)Nc3cccc(C4CCOCC4)c3)[nH]c12 [compound 101] | 50 nM | 200 nM | – | –
Cc1ccc(F)c2cc(C(=O)Nc3cccc([C@H]4CC[C@@H](N(C)C)C4)c3)[nH]c12 [compound 324] | 50 nM | – | 1500 nM | –
Cc1cccc2cc(C(=O)NCCc3ccccc3N3CCOCC3)[nH]c12 [compound 511] | 11600 nM | – | 15800 nM | –
Cc1cc(C(=O)NC2CCN(C)CC2)c(C)nc1C(NC(=O)c1cc2cccc(C)c2[nH]1)C1CC1 (stereo not shown) [compound 529] | 8600 nM | 24900 nM | – | –
Cc1cccc2cc(C(=O)Nc3ccn4ccnc4c3)[nH]c12 [compound 578] | 22500 nM | > 25000 nM | – | –
Cc1ccc(F)c2cc(C(=O)NC3CCCC(N4CCN(C(=O)CO)C(C(F)(F)F)C4)C3)[nH]c12 (stereo not shown) [compound 1176] | 2900 nM | > 2000 nM | – | –
Cc1cccnc1C(NC(=O)c1cc2cccc(C)c2[nH]1)C1CCCC1 (stereo not shown) [compound 563] | 10100 nM | – | > 25000 nM | –
Cc1cccc2cc(C(=O)Nc3ccc4cnc(CN5CCN(C)CC5)cc4c3)[nH]c12 [compound 465] | 400 nM | – | 6600 nM | –
Cc1ccc(F)c2cc(C(=O)Nc3cccc(N4CCOCC4CCO)c3)[nH]c12 (stereo not shown) [compound 331] | 600 nM | – | 1600 nM | –
Cc1ccc(F)c2cc(C(=O)Nc3cc(F)cc([C@H]4CC[C@H](N(C)C)CC4)c3)[nH]c12 [compound 313] | 30 nM | – | 1300 nM | –
Cc1ccc(F)c2cc(C(=O)Nc3cccc(N4CC5CCCNC5C4)c3)[nH]c12 (stereo not shown) [compound 124] | 7 nM | – | 300 nM | –
